Measured values: ChEMBL document CHEMBL3885861, “Open TG-GATES”

Species: Rattus norvegicus
Test: Open TG-GATES - Regimen: Daily Repeat
Format: toxicity, organism-based, Sprague-Dawley
Design: regimen Daily Repeat, gender Male, age 6 weeks
Conditions: in vivo, po, 30 mg/kg, route gavage, dose level Middle; for APTT / Bas / Eos / Fbg / Hb / Ht / Lym / MCHC / MCV / Mono / Neu / PT / Plat / RBC / Ret / WBC: tissue Blood; for KIDNEY_L / KIDNEY_R / KIDNEY_TOTAL: tissue Kidney; for LIVER: tissue Liver; for ALP / ALT / AST / BUN / CRE / Ca / Cl / DBIL / GLC / IP / K / LDH / Na / PL / RALB / TBIL / TC / TG / TP / gamma-GTP: tissue Plasma

Q: What does the source list for `CS(=O)(=O)Nc1ccc([N+](=O)[O-])cc1Oc1ccccc1` [NIMESULIDE]?
A: TERMINAL_BW (72 h, time 3 day): 222.3 g; APTT (72 h, time 3 day): 17.6 s; Bas (72 h, time 3 day): 0%; Eos (72 h, time 3 day): 1.2%; Fbg (72 h, time 3 day): 211.4 mg/dL; Hb (72 h, time 3 day): 13.8 g/dL; Ht (72 h, time 3 day): 41.1%; Lym (72 h, time 3 day): 68.6%; MCHC (72 h, time 3 day): 33.6%; MCV (72 h, time 3 day): 64 fL; Mono (72 h, time 3 day): 10.6%; Neu (72 h, time 3 day): 19.4%; PT (72 h, time 3 day): 11.3 s; Plat (72 h, time 3 day): 114.9 x10_4/uL; RBC (72 h, time 3 day): 642.4 x10_4/ul; Ret (72 h, time 3 day): 9%; WBC (72 h, time 3 day): 80.8 x10_2/uL; KIDNEY_L (72 h, time 3 day): 1 g; KIDNEY_R (72 h, time 3 day): 1.1 g; KIDNEY_TOTAL (72 h, time 3 day): 2.1 g; LIVER (72 h, time 3 day): 11.4 g; ALP (72 h, time 3 day): 888 IU/L; ALT (72 h, time 3 day): 38 IU/L; AST (72 h, time 3 day): 64.6 IU/L; BUN (72 h, time 3 day): 19.6 mg/dL; CRE (72 h, time 3 day): 0.6 mg/dL; Ca (72 h, time 3 day): 10.7 mg/dL; Cl (72 h, time 3 day): 104 meq/L; DBIL (72 h, time 3 day): 0.054 mg/dL; GLC (72 h, time 3 day): 196.8 mg/dL; IP (72 h, time 3 day): 8.2 mg/dL; K (72 h, time 3 day): 4.5 meq/L; LDH (72 h, time 3 day): 91.4 IU/L; Na (72 h, time 3 day): 140.8 meq/L; PL (72 h, time 3 day): 159.2 mg/dL; RALB (72 h, time 3 day): 4.1 g/dL; TBIL (72 h, time 3 day): 0.4 mg/dL; TC (72 h, time 3 day): 90.8 mg/dL; TG (72 h, time 3 day): 75.6 mg/dL; TP (72 h, time 3 day): 5.7 g/dL; gamma-GTP (72 h, time 3 day): 0.8 IU/L; TERMINAL_BW ([…], time 7 day): 250.1 g; TERMINAL_BW ([…], time 14 day): 313 g; TERMINAL_BW ([…], time 28 day): 399.9 g; APTT ([…], time 7 day): 17.5 s; Bas ([…], time 7 day): 0%; Eos ([…], time 7 day): 1.4%; Fbg ([…], time 7 day): 221.8 mg/dL; Hb ([…], time 7 day): 14 g/dL; Ht ([…], time 7 day): 41.4%; Lym ([…], time 7 day): 78.4%; MCHC ([…], time 7 day): 33.9%; MCV ([…], time 7 day): 63.3 fL; Mono ([…], time 7 day): 6%; Neu ([…], time 7 day): 14%; PT ([…], time 7 day): 11.2 s; Plat ([…], time 7 day): 135 x10_4/uL; RBC ([…], time 7 day): 655 x10_4/ul; Ret ([…], time 7 day): 6.6%; WBC ([…], time 7 day): 109.7 x10_2/uL; APTT ([…], time 14 day): 16.8 s; Bas ([…], time 14 day): 0%; Eos ([…], time 14 day): 1.2%; Fbg ([…], time 14 day): 227.6 mg/dL; Hb ([…], time 14 day): 14.2 g/dL; Ht ([…], time 14 day): 41.4%; Lym ([…], time 14 day): 76.2%; MCHC ([…], time 14 day): 34.4%; MCV ([…], time 14 day): 61.6 fL; Mono ([…], time 14 day): 6.6%; Neu ([…], time 14 day): 16.4%; PT ([…], time 14 day): 11.7 s; Plat ([…], time 14 day): 126.4 x10_4/uL; RBC ([…], time 14 day): 672.8 x10_4/ul; Ret ([…], time 14 day): 6.1%; WBC ([…], time 14 day): 127 x10_2/uL; APTT ([…], time 28 day): 18.5 s; Bas ([…], time 28 day): 0%; Eos ([…], time 28 day): 1%; Fbg ([…], time 28 day): 219.2 mg/dL; Hb ([…], time 28 day): 15.3 g/dL; Ht ([…], time 28 day): 45%; Lym ([…], time 28 day): 82.8%; MCHC ([…], time 28 day): 34.1%; MCV ([…], time 28 day): 58.1 fL; Mono ([…], time 28 day): 6%; Neu ([…], time 28 day): 10.4%; PT ([…], time 28 day): 11.7 s; Plat ([…], time 28 day): 112.1 x10_4/uL; RBC ([…], time 28 day): 775.2 x10_4/ul; Ret ([…], time 28 day): 2.8%; WBC ([…], time 28 day): 129 x10_2/uL; KIDNEY_L ([…], time 7 day): 1.1 g; KIDNEY_R ([…], time 7 day): 1.1 g; KIDNEY_TOTAL ([…], time 7 day): 2.2 g; KIDNEY_L ([…], time 14 day): 1.2 g; KIDNEY_R ([…], time 14 day): 1.3 g; KIDNEY_TOTAL ([…], time 14 day): 2.5 g; KIDNEY_L ([…], time 28 day): 1.4 g; KIDNEY_R ([…], time 28 day): 1.4 g; KIDNEY_TOTAL ([…], time 28 day): 2.8 g; LIVER ([…], time 7 day): 13 g; LIVER ([…], time 14 day): 17 g; LIVER ([…], time 28 day): 17.8 g; ALP ([…], time 7 day): 823.8 IU/L; ALT ([…], time 7 day): 36.6 IU/L; AST ([…], time 7 day): 60.6 IU/L; BUN ([…], time 7 day): 21.2 mg/dL; CRE ([…], time 7 day): 0.6 mg/dL; Ca ([…], time 7 day): 10.6 mg/dL; Cl ([…], time 7 day): 106 meq/L; DBIL ([…], time 7 day): 0.018 mg/dL; GLC ([…], time 7 day): 208.6 mg/dL; IP ([…], time 7 day): 7.5 mg/dL; K ([…], time 7 day): 4.5 meq/L; LDH ([…], time 7 day): 91.2 IU/L; Na ([…], time 7 day): 141.8 meq/L; PL ([…], time 7 day): 139.2 mg/dL; RALB ([…], time 7 day): 4.1 g/dL; TBIL ([…], time 7 day): 0.4 mg/dL; TC ([…], time 7 day): 74.2 mg/dL; TG ([…], time 7 day): 72.2 mg/dL; TP ([…], time 7 day): 5.9 g/dL; gamma-GTP ([…], time 7 day): 0.8 IU/L; ALP ([…], time 14 day): 888.2 IU/L; ALT ([…], time 14 day): 33 IU/L; AST ([…], time 14 day): 66.4 IU/L; BUN ([…], time 14 day): 23 mg/dL; CRE ([…], time 14 day): 0.6 mg/dL; Ca ([…], time 14 day): 10.7 mg/dL; Cl ([…], time 14 day): 105 meq/L; DBIL ([…], time 14 day): 0.004 mg/dL; GLC ([…], time 14 day): 195.4 mg/dL; IP ([…], time 14 day): 7.2 mg/dL; K ([…], time 14 day): 4.6 meq/L; LDH ([…], time 14 day): 82.2 IU/L; Na ([…], time 14 day): 141 meq/L; PL ([…], time 14 day): 155.2 mg/dL; RALB ([…], time 14 day): 4.1 g/dL; TBIL ([…], time 14 day): 0.4 mg/dL; TC ([…], time 14 day): 77 mg/dL; TG ([…], time 14 day): 120 mg/dL; TP ([…], time 14 day): 6 g/dL; gamma-GTP ([…], time 14 day): 1 IU/L; ALP ([…], time 28 day): 831.6 IU/L; ALT ([…], time 28 day): 37.2 IU/L; AST ([…], time 28 day): 65 IU/L; BUN ([…], time 28 day): 25.8 mg/dL; CRE ([…], time 28 day): 0.6 mg/dL; Ca ([…], time 28 day): 10.5 mg/dL; Cl ([…], time 28 day): 107.2 meq/L; DBIL ([…], time 28 day): 0.002 mg/dL; GLC ([…], time 28 day): 198.4 mg/dL; IP ([…], time 28 day): 7 mg/dL; K ([…], time 28 day): 4.6 meq/L; LDH ([…], time 28 day): 92.6 IU/L; Na ([…], time 28 day): 144 meq/L; PL ([…], time 28 day): 169 mg/dL; RALB ([…], time 28 day): 4.1 g/dL; TBIL ([…], time 28 day): 0.4 mg/dL; TC ([…], time 28 day): 80.4 mg/dL; TG ([…], time 28 day): 159.4 mg/dL; TP ([…], time 28 day): 6.3 g/dL; gamma-GTP ([…], time 28 day): 1.4 IU/L
